Where a SMILES comes first, the peptide text is derived from it. Bridges are numbered along the chain shown (N, C = ends). [ ]: non-standard residue; d: D form. R8 = C=CCCCCCC[C@@](C)(N)C(=O)O; R5 = C=CCCC[C@@](C)(N)C(=O)O; S5 = C=CCCC[C@](C)(N)C(=O)O
assay: circular dichroism; conditions: 10 mM phosphate; pH 7.5; 25 °C; 50 uM

SMILES | helicity
CC[C@H](C)[C@H](NC(=O)[C@H](CO)NC(=O)[C@H](CCC(=O)O)NC(=O)[C@H](CC(C)C)NC(=O)[C@H](Cc1ccccc1)NC(=O)[C@H](CCCCN)NC(=O)[C@@H](NC(=O)[C@H](C)NC(=O)[C@H](CCCCN)NC(=O)[C@H](CC(N)=O)NC(=O)[C@H](CC(N)=O)NC(=O)[C@H](C)NC(=O)[C@H](CC(=O)O)NC(=O)[C@H](CCC(=O)O)NC(C)=O)[C@@H](C)O)C(=O)N[C@@H](CCCCN)C(=O)N[C@@]1(C)CCCC=CCCC[C@@](C)(C(N)=O)NC(=O)[C@H](C)NC(=O)[C@H](Cc2ccccc2)NC(=O)[C@H](CCCCN)NC1=O (Ac-EDANNKATKFLESIK[S5]KFA[S5]-NH2; staple 16-20) | 24.1%
CC[C@H](C)[C@@H]1NC(=O)[C@](C)(NC(=O)[C@H](CCC(=O)O)NC(=O)[C@H](CC(C)C)NC(=O)[C@H](Cc2ccccc2)NC(=O)[C@H](CCCCN)NC(=O)[C@@H](NC(=O)[C@H](C)NC(=O)[C@H](CCCCN)NC(=O)[C@H](CC(N)=O)NC(=O)[C@H](CC(N)=O)NC(=O)[C@H](C)NC(=O)[C@H](CC(=O)O)NC(=O)[C@H](CCC(=O)O)NC(C)=O)[C@@H](C)O)CCCC=CCCC[C@@](C)(C(=O)N[C@@H](CCCCN)C(=O)N[C@@H](Cc2ccccc2)C(=O)N[C@@H](C)C(=O)N[C@@H](CO)C(N)=O)NC(=O)[C@H](CCCCN)NC1=O (Ac-EDANNKATKFLE[R5]IK[S5]KFAS-NH2; staple 13-16) | 30.7%
CC[C@H](C)[C@@H]1NC(=O)[C@@](C)(NC(=O)[C@H](CCC(=O)O)NC(=O)[C@H](CC(C)C)NC(=O)[C@H](Cc2ccccc2)NC(=O)[C@H](CCCCN)NC(=O)[C@@H](NC(=O)[C@H](C)NC(=O)[C@H](CCCCN)NC(=O)[C@H](CC(N)=O)NC(=O)[C@H](CC(N)=O)NC(=O)[C@H](C)NC(=O)[C@H](CC(=O)O)NC(=O)[C@H](CCC(=O)O)NC(C)=O)[C@@H](C)O)CCCC=CCCC[C@@](C)(C(=O)N[C@@H](Cc2ccccc2)C(=O)N[C@@H](C)C(=O)N[C@@H](CO)C(N)=O)NC(=O)CNC(=O)[C@H](CCCCN)NC1=O (Ac-EDANNKATKFLE[S5]IKG[S5]FAS-NH2; staple 13-17) | 46.5%
CC[C@H](C)[C@@H]1NC(=O)[C@H](CO)NC(=O)[C@](C)(NC(=O)[C@H](CC(C)C)NC(=O)[C@H](Cc2ccccc2)NC(=O)[C@H](CCCCN)NC(=O)[C@@H](NC(=O)[C@H](C)NC(=O)[C@H](CCCCN)NC(=O)[C@H](CC(N)=O)NC(=O)[C@H](CC(N)=O)NC(=O)[C@H](C)NC(=O)[C@H](CC(=O)O)NC(=O)[C@H](CCC(=O)O)NC(C)=O)[C@@H](C)O)CCCCCCC=CCCC[C@@](C)(C(=O)N[C@@H](CO)C(N)=O)NC(=O)[C@H](Cc2ccccc2)NC(=O)[C@H](CCCCN)NC(=O)CNC(=O)[C@H](CCCCN)NC1=O (Ac-EDANNKATKFL[R8]SIKGKF[S5]S-NH2; staple 12-19) | 35.3%
CC[C@H](C)[C@H](NC(=O)[C@H](CO)NC(=O)[C@]1(C)CCCC=CCCC[C@@](C)(NC(=O)[C@@H](NC(=O)[C@H](C)NC(=O)[C@H](CCCCN)NC(=O)[C@H](CC(N)=O)NC(=O)[C@H](CC(N)=O)NC(=O)[C@H](C)NC(=O)[C@H](CC(=O)O)NC(=O)[C@H](CCC(=O)O)NC(C)=O)[C@@H](C)O)C(=O)N[C@@H](Cc2ccccc2)C(=O)N[C@@H](CC(C)C)C(=O)N1)C(=O)N[C@@H](CCCCN)C(=O)NCC(=O)N[C@@H](CCCCN)C(=O)N[C@@H](Cc1ccccc1)C(=O)N[C@@H](C)C(=O)N[C@@H](CO)C(N)=O (Ac-EDANNKAT[R5]FL[S5]SIKGKFAS-NH2; staple 9-12) | 58.9%

assay: Circular dichroism spectroscopy, α-helical content; assay type: physicochemical; conditions: CD, 10 mM phosphate buffer pH 7.5, 50 μM peptide, 25°C, calculated from ellipticity at 222 nm; average of three measurements
Procedure: The α-helical stabilization appeared to be higher for the i, i + 7 staples overall.
The circular dichroism spectra were acquired on a Chirascan spectropolarimeter. The samples were prepared in 10 mM phosphate buffer, pH 7.5, at a peptide concentration of 50 μM. Data were recorded at 25°C by step scan from 180 nm to 260 nm in a 0.5-mm-pathlength quartz cell using 0.2-nm-wavelength increments, a 1-nm bandwidth, and a response time of 1 s. Each spectrum was an average of three measurements and was subtracted from the buffer baseline. The data were converted to per residue molar ellipticity units (θ; in degrees · square centimeters · decimoles^−1 · number of residues^−1) and smoothed using Igor Pro software. Percent helicity was calculated as follows: (100 × CD222)/(C × N × {40,000 × [1 − (2.5/N)]}), where CD222 is the molar ellipticity (θ) at 222 nm (in millidegrees), N is the number of amino acids in the peptide, and C is the peptide molar concentration (in moles per liter).

SMILES | % helicity
CC[C@H](C)[C@H](NC(=O)[C@H](CO)NC(=O)[C@H](CCC(=O)O)NC(=O)[C@H](CC(C)C)NC(=O)[C@H](Cc1ccccc1)NC(=O)[C@]1(C)CCCC=CCCC[C@@](C)(NC(=O)[C@H](CC(N)=O)NC(=O)[C@H](CC(N)=O)NC(=O)[C@H](C)NC(=O)[C@H](CC(=O)O)NC(=O)[C@H](CCC(=O)O)NC(C)=O)C(=O)N[C@@H](C)C(=O)N[C@@H]([C@@H](C)O)C(=O)N1)C(=O)N[C@@H](CCCCN)C(=O)NCC(=O)N[C@@H](CCCCN)C(=O)N[C@@H](Cc1ccccc1)C(=O)N[C@@H](C)C(=O)N[C@@H](CO)C(N)=O [1b] (Ac-EDANN[R5]AT[S5]FLESIKGKFAS-NH2; staple 6-9) | 11.5%
CC[C@H](C)[C@@H]1NC(=O)[C@H](CO)NC(=O)[C@@](C)(NC(=O)[C@H](CC(C)C)NC(=O)[C@H](Cc2ccccc2)NC(=O)[C@H](CCCCN)NC(=O)[C@@H](NC(=O)[C@H](C)NC(=O)[C@H](CCCCN)NC(=O)[C@H](CC(N)=O)NC(=O)[C@H](CC(N)=O)NC(=O)[C@H](C)NC(=O)[C@H](CC(=O)O)NC(=O)[C@H](CCC(=O)O)NC(=O)CNC(=O)[C@H](Cc2c[nH]cn2)NC(=O)[C@H](Cc2ccccc2)NC(=O)[C@H](CCC(=O)O)NC(C)=O)[C@@H](C)O)CCCC=CCCCC2(CCCC=CCCC[C@@](C)(C(=O)N[C@@H](CO)C(N)=O)NC(=O)[C@H](Cc3ccccc3)NC(=O)[C@H](CCCCN)NC2=O)NC(=O)[C@H](CCCCN)NC1=O (stereo partly shown) [2e1f] | 27.0%
CC[C@H](C)[C@H](NC(=O)[C@H](CO)NC(=O)[C@H](CCC(=O)O)NC(=O)[C@H](CC(C)C)NC(=O)[C@H](Cc1ccccc1)NC(=O)[C@H](CCCCN)NC(=O)[C@@H](NC(=O)[C@H](C)NC(=O)[C@H](CCCCN)NC(=O)[C@]1(C)CCCC=CCCC[C@@](C)(NC(=O)[C@H](CCC(=O)O)NC(=O)CNC(=O)[C@H](Cc2c[nH]cn2)NC(=O)[C@H](Cc2ccccc2)NC(=O)[C@H](CCC(=O)O)NC(C)=O)C(=O)N[C@@H](C)C(=O)N[C@@H](CC(N)=O)C(=O)N1)[C@@H](C)O)C(=O)N[C@@H](CCCCN)C(=O)NCC(=O)N[C@@H](CCCCN)C(=O)N[C@@H](Cc1ccccc1)C(=O)N[C@@H](C)C(=O)N[C@@H](CO)C(N)=O [4b] (Ac-EFHGE[R5]AN[S5]KATKFLESIKGKFAS-NH2; staple 6-9) | 21.7%
CC[C@H](C)[C@H](NC(=O)[C@H](CO)NC(=O)[C@H](CCC(=O)O)NC(=O)[C@H](CC(C)C)NC(=O)[C@H](Cc1ccccc1)NC(=O)[C@H](CCCCN)NC(=O)[C@@H](NC(=O)[C@H](C)NC(=O)[C@]1(C)CCCC=CCCC[C@](C)(NC(=O)[C@H](CCC(=O)O)NC(=O)CNC(=O)[C@H](Cc2c[nH]cn2)NC(=O)[C@H](Cc2ccccc2)NC(=O)[C@H](CCC(=O)O)NC(C)=O)C(=O)N[C@@H](C)C(=O)N[C@@H](CC(N)=O)C(=O)N[C@@H](CC(N)=O)C(=O)N1)[C@@H](C)O)C(=O)N[C@@H](CCCCN)C(=O)NCC(=O)N[C@@H](CCCCN)C(=O)N[C@@H](Cc1ccccc1)C(=O)N[C@@H](C)C(=O)N[C@@H](CO)C(N)=O [4d] (Ac-EFHGE[S5]ANN[S5]ATKFLESIKGKFAS-NH2; staple 6-10) | 28.0%
CC[C@H](C)[C@H](NC(=O)[C@]1(C)CCCCCCC=CCCCC2(CCCC=CCCCCCC[C@@](C)(NC(=O)[C@H](Cc3ccccc3)NC(=O)[C@H](CCC(=O)O)NC(C)=O)C(=O)NCC(=O)N[C@@H](CCC(=O)O)C(=O)N[C@@H](CC(=O)O)C(=O)N[C@@H](C)C(=O)N[C@@H](CC(N)=O)C(=O)N[C@@H](CC(N)=O)C(=O)N2)C(=O)N[C@@H](C)C(=O)N[C@@H]([C@@H](C)O)C(=O)N[C@@H](CCCCN)C(=O)N[C@@H](Cc2ccccc2)C(=O)N[C@@H](CC(C)C)C(=O)N[C@@H](CCC(=O)O)C(=O)N1)C(=O)N[C@@H](CCCCN)C(=O)NCC(=O)N[C@@H](CCCCN)C(=O)N[C@@H](Cc1ccccc1)C(=O)N[C@@H](C)C(=O)N[C@@H](CO)C(N)=O (stereo partly shown) [4e3b] | 51.1%
CC[C@H](C)[C@H](NC(=O)[C@H](CO)NC(=O)[C@H](CCC(=O)O)NC(=O)[C@H](CC(C)C)NC(=O)[C@H](Cc1ccccc1)NC(=O)[C@H](CCCCN)NC(=O)[C@@H](NC(=O)[C@H](C)NC(=O)[C@]1(C)CCCC=CCCCCCC[C@@](C)(NC(=O)[C@H](Cc2ccccc2)NC(=O)[C@H](CCC(=O)O)NC(C)=O)C(=O)NCC(=O)N[C@@H](CCC(=O)O)C(=O)N[C@@H](CC(=O)O)C(=O)N[C@@H](C)C(=O)N[C@@H](CC(N)=O)C(=O)N[C@@H](CC(N)=O)C(=O)N1)[C@@H](C)O)C(=O)N[C@@H](CCCCN)C(=O)NCC(=O)N[C@@H](CCCCN)C(=O)N[C@@H](Cc1ccccc1)C(=O)N[C@@H](C)C(=O)N[C@@H](CO)C(N)=O [4e] (Ac-EF[R8]GEDANN[S5]ATKFLESIKGKFAS-NH2; staple 3-10) | 28.8%
CC[C@H](C)[C@H](NC(=O)[C@H](CO)NC(=O)[C@H](CCC(=O)O)NC(=O)[C@H](CC(C)C)NC(=O)[C@H](Cc1ccccc1)NC(=O)[C@]1(C)CCCC=CCCCCCC[C@@](C)(NC(=O)[C@H](CCC(=O)O)NC(=O)CNC(=O)[C@H](Cc2c[nH]cn2)NC(=O)[C@H](Cc2ccccc2)NC(=O)[C@H](CCC(=O)O)NC(C)=O)C(=O)N[C@@H](C)C(=O)N[C@@H](CC(N)=O)C(=O)N[C@@H](CC(N)=O)C(=O)N[C@@H](CCCCN)C(=O)N[C@@H](C)C(=O)N[C@@H]([C@@H](C)O)C(=O)N1)C(=O)N[C@@H](CCCCN)C(=O)NCC(=O)N[C@@H](CCCCN)C(=O)N[C@@H](Cc1ccccc1)C(=O)N[C@@H](C)C(=O)N[C@@H](CO)C(N)=O [4f] (Ac-EFHGE[R8]ANNKAT[S5]FLESIKGKFAS-NH2; staple 6-13) | 17.2%
CC[C@H](C)[C@H](NC(=O)[C@]1(C)CCCC=CCCCCCC[C@@](C)(NC(=O)[C@H](CC(N)=O)NC(=O)[C@H](CC(N)=O)NC(=O)[C@H](C)NC(=O)[C@H](CC(=O)O)NC(=O)[C@H](CCC(=O)O)NC(=O)CNC(=O)[C@H](Cc2c[nH]cn2)NC(=O)[C@H](Cc2ccccc2)NC(=O)[C@H](CCC(=O)O)NC(C)=O)C(=O)N[C@@H](C)C(=O)N[C@@H]([C@@H](C)O)C(=O)N[C@@H](CCCCN)C(=O)N[C@@H](Cc2ccccc2)C(=O)N[C@@H](CC(C)C)C(=O)N[C@@H](CCC(=O)O)C(=O)N1)C(=O)N[C@@H](CCCCN)C(=O)NCC(=O)N[C@@H](CCCCN)C(=O)N[C@@H](Cc1ccccc1)C(=O)N[C@@H](C)C(=O)N[C@@H](CO)C(N)=O [4g] | 47.6%
